The source of these data is US9101137B2 (priority 2011, dated 2015).

Like-named read-outs stand apart in the source and are kept apart here.

Holding throughout (assay type): in vivo, Magnaporthe grisea
Assay [1] has as its system rice blast disease. Conditions: application concentration 10 ppm; rice (Nanatsuboshi), spray; lesion area after 6 days; average of duplicate.
Assay [2] relates to rice blast disease. As to conditions: application concentration 20 ppm; rice (Nanatsuboshi), spray; lesion area after 5 days.
Assay [3] relates to rice blast disease. Conditions: application concentration 50 ppm; rice (Nanatsuboshi), spray; lesion area after 6 days.

`COC(=O)NCc1cc(/C(C)=N/OCc2cccc(C)n2)ccc1Cl` [Pyribencarb, pyribencarb]: the Control value in assay [1] is 18.8; in assay [2], 40.0; in assay [3] it was 86.0.
